# System: UC model mice
# Assay: 3% DSS-induced ulcerative colitis model in mice: colon length, body weight, Disease Activity Index (DAI)
# Type: in vivo
# Settings: positive drug group, 500 mg/kg/d by gavage, 3% DSS mice
# Experimental: Mice aged 6-8 weeks were adaptively kept in an animal house for 3 days. After weighing, they were randomly divided into 8 groups (counted as Day 0), with 5-6 mice in each group. Experimental grouping was as follows: group 1, normal control; group 2, model; group 3, positive control; and groups 4-8, SZ-A with different administration doses, respectively. 3% DSS was formulated as follows: 3 g of DSS (Dextran Sulfate Sodium Salt) was dissolved in 100 mL of sterile water; The mulberry twig extract as prepared in Preparative Example 1 was formulated at different concentrations and dissolved in 1% CMC solution; Drug as positive control: Sulfasalazine Enteric-Coated Tablets (NMPN H31020557). On the day when grouping was done, the mice in group 8, SZ-A-5 (pretreatment) group, were administered with a mulberry twig extract by oral gavage (see the following table for dosages) once a day. All groups are normally available to food and water. […] After 5 days from the start of modelling, the access to 3% DSS was stopped, and all groups had normal drinking water instead, with the administration done normally. The mice were administered continuously and observed for 10 days, and euthanized by cervical dislocation. The colons of the mice were removed by dissection, and the lengths of the colons were measured and photographed. During the administration, the weights of the mice in each group were measured. During the modelling and administration, stool texture and blood in stool of the mice were monitored daily, and Disease Activity Index, DAI, for the mice was scored according to Table 2 below. [table] [table] • Note: DAI=Score for Weight Loss+Score for Stool Texture+Score for Fecal Occult Blood; Normal Stool: Shaped Stool; Mushy Stool: Pasty, Semi-Shaped Stool without Adhering to Anus; Liquid Stool: Thin, Watery Stool that may Adhere to Anus. Disease Activity Index (DAI) scores for mice were compared using the mulberry twig extracts in each preparative example with reference to the experimental steps in sections 1.1-1.3 above. […]
smiles,measurement,setting,value
"O=C(O)c1cc(N=Nc2ccc(S(=O)(=O)Nc3ccccn3)cc2)ccc1O [positive drug, 5-[p-(2-pyridylsulfamoyl)phenylazo]salicylic acid]",inhibition of colonic atrophy (colon length) compared with model group,FIG. 1-2,significantly inhibited colonic atrophy
same,inhibition of weight loss compared with model group,FIG. 3,inhibit weight loss
same,"reduction of Disease Activity Index, DAI, compared with model group",FIG. 4,reduce Disease Activity Index

# Source: patent publication US12527830B2, “Method for treating and preventing ulcerative colitis and method for DAI reduction” (BEIJING WEHAND-BIO PHARMACEUTICAL CO., LTD, priority 2022, dated 2026)
